# From PubChem BioAssay (NCI)
#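 Method: 48-hour compound exposure of cells in 96-well plates, five concentrations, linear interpolation of endpoints. Abbreviation: GI50, concentration required for 50% inhibition of growth. TGI: concentration producing complete growth inhibition.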
# Tests used:
# Assay in all cases: growth of human tumour cells (NCI), 48 h
# [1] = tested on: KM12 colon
# [2] = tested on: HCC-2998 colon
# [3] = tested on: M14 melanoma
# [4] = tested on: 786-0 renal
# [5] = tested on: HCT-15 colon
# [6] = tested on: EKVX NSCLC
# [7] = tested on: SK-MEL-28 melanoma
# [8] = tested on: K-562 leukemia
# [9] = tested on: A498 renal
# [10] = tested on: T-47D breast
# [11] = tested on: NCI-H460 lung
# [12] = tested on: MALME-3M melanoma
# [13] = tested on: SNB-19 CNS
# [14] = tested on: RPMI-8226 leukemia
# [15] = tested on: CCRF-CEM leukemia
# [16] = tested on: OVCAR-5 ovarian
# [17] = tested on: HS 578T breast
# [18] = tested on: HT29 colon
# [19] = tested on: SN12C renal
# [20] = tested on: PC-3 prostate
# [21] = tested on: NCI/ADR-RES ovarian
# [22] = tested on: DU-145 prostate
# [23] = tested on: SW-620 colon
# [24] = tested on: SF-539 CNS
# [25] = tested on: TK-10 renal
# [26] = tested on: OVCAR-8 ovarian
# [27] = tested on: MDA-MB-231 breast
# [28] = tested on: SK-MEL-2 melanoma
# [29] = tested on: HOP-62 NSCLC
# [30] = tested on: NCI-H23 lung
# [31] = tested on: LOX IMVI melanoma
# [32] = tested on: SF-268 CNS
# [33] = tested on: MCF7 breast
# [34] = tested on: UO-31 renal
# [35] = tested on: UACC-257 melanoma
# [36] = tested on: ACHN renal
# [37] = tested on: UACC-62 melanoma
# [38] = tested on: SK-OV-3 ovarian
# [39] = tested on: HOP-92 NSCLC
# [40] = tested on: RXF 393 renal
# [41] = tested on: MOLT-4 leukemia
# [42] = tested on: BT-549 breast
# [43] = tested on: MDA-MB-435
# [44] = tested on: SF-295 CNS
# [45] = tested on: IGROV1 ovarian
# [46] = tested on: OVCAR-4 ovarian
# [47] = tested on: SK-MEL-5 melanoma
# [48] = tested on: A549 NSCLC
# [49] = tested on: U251 CNS
# [50] = tested on: NCI-H226 lung
# [51] = tested on: NCI-H522 lung
# [52] = tested on: COLO 205 colon
# [53] = tested on: MDA-MB-468 breast
# [54] = tested on: HCT-116 colon
# [55] = tested on: CAKI-1 renal
# [56] = tested on: OVCAR-3 ovarian
# [57] = tested on: HL-60(TB) leukemia
# [58] = tested on: SR leukemia
# [59] = tested on: SNB-75 CNS
structure (smiles),measurement,setting,value
Cn1cc(-c2cc3nc(-c4cn(C)c5ncccc45)cc(N)n3n2)c2cc(Cl)ccc21,GI50,[1],2.14 µM
same,TGI,[1],4.76 µM
same,GI50,[2],1.71 µM
same,TGI,[2],3.12 µM
same,GI50,[3],1.67 µM
same,TGI,[3],3.14 µM
same,GI50,[4],1.65 µM
same,TGI,[4],3.03 µM
same,GI50,[5],1.89 µM
same,TGI,[5],4.36 µM
same,GI50,[6],1.68 µM
same,TGI,[6],3.51 µM
same,GI50,[7],1.65 µM
same,TGI,[7],3.04 µM
same,GI50,[8],1.75 µM
same,TGI,[8],4.41 µM
same,GI50,[9],1.9 µM
same,TGI,[9],5.37 µM
same,GI50,[10],1.8 µM
same,TGI,[10],4.04 µM
same,GI50,[11],1.88 µM
same,TGI,[11],3.67 µM
same,GI50,[12],1.71 µM
same,TGI,[12],3.15 µM
same,GI50,[13],3.23 µM
same,TGI,[13],9.76 µM
same,GI50,[14],2.4 µM
same,TGI,[14],6.4 µM
same,GI50,[15],2.58 µM
same,TGI,[15],> 100 µM
same,GI50,[16],1.85 µM
same,TGI,[16],4.48 µM
same,GI50,[17],2.1 µM
same,TGI,[17],5.25 µM
same,GI50,[18],1.98 µM
same,TGI,[18],4.1 µM
same,GI50,[19],1.63 µM
same,TGI,[19],3.09 µM
same,GI50,[20],2.21 µM
same,TGI,[20],7.6 µM
same,GI50,[21],2.25 µM
same,TGI,[21],5.3 µM
same,GI50,[22],2.54 µM
same,TGI,[22],7.06 µM
same,GI50,[23],1.8 µM
same,TGI,[23],3.53 µM
same,GI50,[24],1.73 µM
same,TGI,[24],3.15 µM
same,GI50,[25],1.91 µM
same,TGI,[25],6.91 µM
same,GI50,[26],2.13 µM
same,TGI,[26],4.82 µM
same,GI50,[27],1.76 µM
same,TGI,[27],3.23 µM
same,GI50,[28],1.91 µM
same,TGI,[28],3.69 µM
same,GI50,[29],1.96 µM
same,TGI,[29],4.21 µM
same,GI50,[30],2.32 µM
same,TGI,[30],6.47 µM
same,GI50,[31],1.77 µM
same,TGI,[31],3.16 µM
same,GI50,[32],2.13 µM
same,TGI,[32],4.83 µM
same,GI50,[33],1.83 µM
same,TGI,[33],4.31 µM
same,GI50,[34],1.62 µM
same,TGI,[34],3.31 µM
same,GI50,[35],1.72 µM
same,TGI,[35],3.34 µM
same,GI50,[36],1.86 µM
same,TGI,[36],3.53 µM
same,GI50,[37],1.6 µM
same,TGI,[37],3.04 µM
same,GI50,[38],2.02 µM
same,TGI,[38],4.08 µM
same,GI50,[39],2.16 µM
same,TGI,[39],4.14 µM
same,GI50,[40],1.53 µM
same,TGI,[40],2.97 µM
same,GI50,[41],2.02 µM
same,TGI,[41],5.11 µM
same,GI50,[42],1.59 µM
same,TGI,[42],3.09 µM
same,GI50,[43],1.71 µM
same,TGI,[43],3.29 µM
same,GI50,[44],1.77 µM
same,TGI,[44],3.41 µM
same,GI50,[45],1.87 µM
same,TGI,[45],3.49 µM
same,GI50,[46],2.03 µM
same,TGI,[46],4.74 µM
same,GI50,[47],1.59 µM
same,TGI,[47],2.96 µM
same,GI50,[48],2.87 µM
same,TGI,[48],12 µM
same,GI50,[49],2.18 µM
same,TGI,[49],5.03 µM
same,GI50,[50],2.02 µM
same,TGI,[50],4.64 µM
same,GI50,[51],1.77 µM
same,TGI,[51],3.33 µM
same,GI50,[52],1.77 µM
same,TGI,[52],3.24 µM
same,GI50,[53],1.5 µM
same,TGI,[53],2.86 µM
same,GI50,[54],1.62 µM
same,TGI,[54],2.98 µM
same,GI50,[55],1.85 µM
same,TGI,[55],4.38 µM
same,GI50,[56],1.91 µM
same,TGI,[56],3.59 µM
CN(C(=O)c1ccc(C(F)(F)F)cc1C(F)(F)F)c1sc2c(c1C#N)CCC(=O)C2,GI50,[1],4.25 µM
same,TGI,[1],17.5 µM
same,GI50,[2],15.1 µM
same,TGI,[2],29.5 µM
same,GI50,[3],4.18 µM
same,TGI,[3],19.2 µM
same,GI50,[4],15.7 µM
same,TGI,[4],34.7 µM
same,GI50,[5],3.09 µM
same,TGI,[5],11.6 µM
same,GI50,[6],14.2 µM
same,TGI,[6],30.8 µM
same,GI50,[7],21.4 µM
same,TGI,[7],43.8 µM
same,GI50,[8],2.7 µM
same,TGI,[8],> 100 µM
same,GI50,[9],16.9 µM
same,TGI,[9],30.9 µM
same,GI50,[10],4.43 µM
same,TGI,[10],30.4 µM
same,GI50,[11],17.2 µM
same,TGI,[11],33.2 µM
same,GI50,[12],18.1 µM
same,TGI,[12],36.1 µM
same,GI50,[13],12.4 µM
same,TGI,[13],26.8 µM
same,GI50,[14],2.82 µM
same,TGI,[14],13.3 µM
same,GI50,[15],2.73 µM
same,TGI,[15],14.6 µM
same,GI50,[16],21.3 µM
same,TGI,[16],39.6 µM
same,GI50,[17],3.92 µM
same,TGI,[17],28.7 µM
same,GI50,[18],17.6 µM
same,TGI,[18],34.4 µM
same,GI50,[19],10.5 µM
same,TGI,[19],29.6 µM
same,GI50,[20],2.69 µM
same,TGI,[20],6.93 µM
same,GI50,[22],17.3 µM
same,TGI,[22],31.3 µM
same,GI50,[23],3.22 µM
same,TGI,[23],12.3 µM
same,GI50,[24],2.34 µM
same,TGI,[24],5.04 µM
same,GI50,[25],14.6 µM
same,TGI,[25],28 µM
same,GI50,[26],4.66 µM
same,TGI,[26],19 µM
same,GI50,[27],13.1 µM
same,TGI,[27],35 µM
same,GI50,[28],14.3 µM
same,TGI,[28],31 µM
same,GI50,[29],16.1 µM
same,TGI,[29],30.3 µM
same,GI50,[30],6.94 µM
same,TGI,[30],22.8 µM
same,GI50,[31],4.09 µM
same,TGI,[31],15.5 µM
same,GI50,[32],12.1 µM
same,TGI,[32],32.8 µM
same,GI50,[33],14.6 µM
same,TGI,[33],31 µM
same,GI50,[34],3.15 µM
same,TGI,[34],13.7 µM
same,GI50,[35],16.3 µM
same,TGI,[35],32.8 µM
same,GI50,[36],14.2 µM
same,TGI,[36],29.6 µM
same,GI50,[37],4.48 µM
same,TGI,[37],17 µM
same,GI50,[57],3.33 µM
same,TGI,[57],25.6 µM
same,GI50,[38],15.3 µM
same,TGI,[38],28.9 µM
same,GI50,[39],5.35 µM
same,TGI,[39],19.3 µM
same,GI50,[40],2.74 µM
same,TGI,[40],10.1 µM
same,GI50,[41],4.13 µM
same,TGI,[41],27.8 µM
same,GI50,[42],2.82 µM
same,TGI,[42],8.29 µM
same,GI50,[43],15.7 µM
same,TGI,[43],30.5 µM
same,GI50,[44],12.3 µM
same,TGI,[44],25.6 µM
same,GI50,[45],11.3 µM
same,TGI,[45],25.7 µM
same,GI50,[46],3 µM
same,TGI,[46],10.3 µM
same,GI50,[47],8.15 µM
same,TGI,[47],21.1 µM
same,GI50,[48],18.1 µM
same,TGI,[48],41.8 µM
same,GI50,[58],2.64 µM
same,TGI,[58],11 µM
same,GI50,[49],1.98 µM
same,TGI,[49],4.68 µM
same,GI50,[50],16.7 µM
same,TGI,[50],40.9 µM
same,GI50,[51],1.62 µM
same,TGI,[51],3.38 µM
same,GI50,[52],16 µM
same,TGI,[52],30.5 µM
same,GI50,[53],2.35 µM
same,TGI,[53],6.93 µM
same,GI50,[59],5.25 µM
same,TGI,[59],20.7 µM
same,GI50,[54],3.65 µM
same,TGI,[54],14.4 µM
same,GI50,[55],7.01 µM
same,TGI,[55],21.1 µM
same,GI50,[56],2.4 µM
same,TGI,[56],6.1 µM
